For series [1] the following is noted: 20° C., cited from earlier work.
In series [2] the test system is common lambsquarter (Chenopodium album L.; CHEAL). Put plainly: adjuvant for Carfentrazon-ethyl test. It counts as in vivo. The following applies: Spotlight Plus, 7 DAT. As to the method:
In this test we looked at the performance with Carfentrazone-ethyl (Spotlight Plus from FMC) on common lambsquarter (Chenopodium album L.; CHEAL).
After emergence, the seedlings were thinned to two plants per pot for the efficacy experiments. The common lambsquarters were treated at the four-leaf stage. The fresh weights of the plants were measured 7 days after treatment (7 DAT).
The following herbicide was used in the treatment solutions: Carfentrazone-ethyl, Spotlight Plus (FMC) ME formulation, 60 g a.i./L.
Demineralized water was used as the carrier.

Series [3] relates to Black nightshade (Solanum nigrum L.; SOLNI). To be noted: Dicamba DMA-salt, Banvel, 16 DAT.
Procedure: Black nightshade (Solanum nigrum L.; SOLNI) was grown in a growth chamber under 14 h of light, at 18/12 (±0.5) ° C. (day/night) temperature, and in 70/80 (±5)% (day/night) relative humidity. Light was provided by high-pressure mercury lamps and fluorescent tubes to give 250 pmol m^−2 s^−1 at leaf level. The plants were grown in 11-cm-diam plastic pots filled with a mixture of sand and humic potting soil (1:2 by volume). The pots were placed on subirrigation matting, which was wetted daily with a half-strength nutrient solution. After emergence, the seedlings were thinned to one plant per pot for the efficacy experiments. Black nightshade was treated at the four-leaf stage. The fresh weights of the plants were measured 16 days after treatment (16 DAT).
The treatment solutions were applied with an air-pressured laboratory track sprayer having 1.2-mm nozzles fitted with a perforated (0.6 mm) whirling pin and delivering 200 L/ha at 303 kPa.
The experiment was conducted with four replicates per experiment according to a completely randomized design.
The subject of series [4] is Wild oat (Avena fatua L.; AVEFA). Description: adjuvant for Fenoxaprop-P-ethyl test. It counts as in vivo. The following applies: Puma EW, 21 DAT. The protocol: In this test the performance with Fenoxaprop-P-ethyl was looked at. Plant material. […] After emergence, the seedlings were thinned to four plants per pot for the efficacy experiments. The plants were treated at the three-leaf stage. The fresh weights of the plants were measured 21 days after treatment (21 DAT). […] The following herbicide was included in the treatment solutions: Fenoxaprop-P-ethyl, Puma EW formulation, 69 g a.i./L. […] Demineralized water was used as the carrier.

A short description of series [5]: solubility / miscibility in water and dodecane. The format is physicochemical. An excerpt: R1 is preferably an aliphatic group, in particular a fatty chain, having 5-13 carbon atoms (i.e. a C5 to C13 carbon chain), preferably 5-9 carbon atoms. This embodiment is especially advantageous when the amide is a diamine of formula (I). […] This is not only the case when one or more of the R2, R3, R4 and R5 groups are ethanol and/or tertiary propanol groups, but also when these groups are alkyl groups, in particular C1 to C3 alkyl groups. The R2, R3, R4 and R5 groups are preferably methyl groups. The corresponding DMAPA amides, on the other hand, show only poor water solubility.
Furthermore, they can be used efficiently in highly concentrated (so-called ‘high load’) agrochemical compositions to prevent phase separation to occur. The amphiphilic behaviour of the bisDMAPA amides is further illustrated in example 4.

The subject of the next series is winter wheat (cv. Ilias). Description: adjuvant for glyphosate test on wheat. The following applies: where named, 0.25% w/v, 21 DAT. The format is in vivo. As to the method:
(§1) Wheat plants were used as a model for difficult to wet grasses and black nightshade was used as a model for a plant with an easy to wet but difficult to permeate leaf surface.
(§2) After emergence, the wheat seedlings were thinned to six plants per pot for the efficacy experiments. Black nightshade seedlings were thinned to one plant per pot. Black nightshade and wheat were treated at the four- and the three-leaf stage, respectively. The fresh weights of the plants were measured 14 days after treatment (14 DAT; black nightshade) or 21 days after treatment (21 DAT; wheat).
(§3) Demineralized water was used as the carrier. […] Based on previous work, these rates were 20.3 g ae/ha (equivalent to 0.6 mM) on black nightshade and 77.8 g ae/ha (equivalent to 2.3 mM at 200 L/ha) on wheat (ae=acid equivalent).
(§4) The fresh weight of the untreated plant was taken as a reference (100%). […] An industrial standard was also included in the test series.

In the next series the test system is Black nightshade (SOLNI). Put plainly: adjuvant for glyphosate test on black nightshade. The format is in vivo. To be noted: where named, 0.25% w/v, 14 DAT. The protocol: as §1, §2, §3, §4
Series [6] can be described thus: Manometric Respirometry Test (biodegradability). The following applies: after 28 days. The protocol:
Biodegradability test of N,N-bis(3-(dimethylamino) propyl)-octanamide was tested in a Manometric Respirometry Test according to Commission Regulation 440/2008/EC, Method C.4-D of May 30, 2008: Manometric Respirometry Test (EEC Publication N° L142/496, May 2008).
The percentage of biodegradation was 65% after 28 days.

The mark [7] stands for this setting: sub-optimal rate + N,N-bis(3-(dimethylamino)propyl)octanamide 0.25% (w/v).
Where [8] appears, read: sub-optimal rate, no adjuvant, average of four replicates.

Where two headings read alike, the source gives them in different places.

Consider `CCOC(=O)C(Cl)Cc1cc(-n2nc(C)n(C(F)F)c2=O)c(F)cc1Cl` (centres unmarked) [Carfentrazone-ethyl], for which the “log Kow” value in series [1] (no pH given) is recorded as 3.4. In series [2] (setting [7]), the “Fresh Weight CHEAL (g) Herbicide + Adjuvant” value stood at 0.7 g. Besides, the “Fresh weight CHEAL (g) Only herbicide” value in series [2] (setting [8]) is 4.9 g.
Take `COc1c(Cl)ccc(Cl)c1C(=O)O` [Dicamba]: the “Fresh Weight SOLNI (g) Herbicide + Adjuvant” value in series [3] (setting [7]) is listed as 6.7 g. Moreover, the “Fresh weight SOLNI (g) Only herbicide” value in series [3] (setting [8]) came out at 10.8 g. In addition, the “log Kow” value in series [1] (at pH 7) is recorded as −1.9.
Take `CCOC(=O)[C@@H](C)Oc1ccc(Oc2nc3ccc(Cl)cc3o2)cc1` [Fenoxaprop-P-ethyl]: the “Fresh Weight Wild Oat (g) Herbicide + Compound” value in series [4] (setting [7]) stood at 1.4 g. For the same compound, the “Fresh weight Wild Oat (g) Only herbicide” value in series [4] (setting [8]) is 16.4 g. Further, the “log Kow” value in series [1] (no pH given) was 4.3.
For `CCCCCCCC(=O)N(CCCN(C)C)CCCN(C)C` [N,N-bis(3-(dimethylamino)propyl)octanamide], in series [5], the solubility in dodecane entry is “completely soluble” and the solubility in water result is listed as “completely soluble”. Besides, the “Fresh Weight WHEAT” value with winter wheat (cv. Ilias) (IPA-glyphosate 2.3 mM (77.8 g ae/ha at 200 L/ha)) is 2.3 g. Also, in the series on winter wheat (cv. Ilias) (untreated plant = 100%, IPA-glyphosate 2.3 mM), the “Relative weight WHEAT (%)” value came to 13.0%. For the same compound, in the series with Black nightshade (SOLNI) (IPA-glyphosate 0.6 mM (20.3 g ae/ha at 200 L/ha)), the “Fresh Weight SOLNI” value is reported as 1.6 g. Also, the “Relative weight SOLNI (%)” value in the series on Black nightshade (SOLNI) (untreated plant = 100%, IPA-glyphosate 0.6 mM) is given as 14.1%. Besides, in series [6], the biodegradability classification entry was “Readily Biodegradable” and the percentage of biodegradation is 65%.

(Values after patent US9992994B2, “Agricultural and detergent compositions containing a tertiary amide as adjuvant or as surfactant” (Taminco BVBA, priority 2011, dated 2018).)
